{
  "source": "patent US20060019936A1",
  "about": "(priority 2004, published 2006)",
  "key": {"AR from LNCaP cells": {"target": "T1, AR from LNCaP cells (Homo sapiens, UniProt P10275, T878A)", "T1 construct": "Whole cell extracts prepared from LNCaP and T47D cells were used as sources of the AR and PR respectively; endogenous in cells; host or cells: LNCaP whole cell extract", "T1 sequence (P10275 whole entry T878A)": "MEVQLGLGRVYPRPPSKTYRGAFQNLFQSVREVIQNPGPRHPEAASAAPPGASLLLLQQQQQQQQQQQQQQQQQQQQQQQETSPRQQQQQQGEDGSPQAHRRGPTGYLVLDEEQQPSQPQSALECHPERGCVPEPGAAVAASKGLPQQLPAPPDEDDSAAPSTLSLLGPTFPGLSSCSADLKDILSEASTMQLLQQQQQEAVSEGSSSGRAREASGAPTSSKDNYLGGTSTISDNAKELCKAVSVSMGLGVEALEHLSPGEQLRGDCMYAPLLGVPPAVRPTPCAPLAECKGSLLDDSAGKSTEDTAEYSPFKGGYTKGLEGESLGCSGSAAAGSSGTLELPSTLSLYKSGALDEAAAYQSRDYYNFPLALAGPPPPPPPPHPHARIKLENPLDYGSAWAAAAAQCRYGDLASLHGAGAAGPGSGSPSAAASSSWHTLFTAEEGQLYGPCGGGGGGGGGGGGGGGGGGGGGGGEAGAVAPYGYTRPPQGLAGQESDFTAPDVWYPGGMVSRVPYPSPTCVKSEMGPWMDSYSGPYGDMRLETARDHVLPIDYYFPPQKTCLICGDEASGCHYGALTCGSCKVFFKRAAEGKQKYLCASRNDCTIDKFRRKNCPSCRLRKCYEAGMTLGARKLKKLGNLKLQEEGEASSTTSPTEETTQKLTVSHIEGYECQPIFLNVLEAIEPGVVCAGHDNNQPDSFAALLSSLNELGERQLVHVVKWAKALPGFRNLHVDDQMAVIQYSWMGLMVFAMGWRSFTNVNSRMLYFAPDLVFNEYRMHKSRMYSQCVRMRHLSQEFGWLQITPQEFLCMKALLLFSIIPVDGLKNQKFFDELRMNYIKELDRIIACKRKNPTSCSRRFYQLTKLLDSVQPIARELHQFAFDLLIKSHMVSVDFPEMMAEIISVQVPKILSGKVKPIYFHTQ", "experiment": "Competitive binding assay for the AR (relative binding affinity)", "conditions": "dihydrotestosterone RBA=100"}, "[1]": {"test_system": "LNCaP, PC3 and DU145 cells", "experiment": "Differential sensitivity of AR positive and AR negative cells", "format": "cell-based, human", "conditions": "dose of 10 μM", "procedure": "AR positive LNCaP cells were 7-fold more sensitive than AR negative PC3 and DU145 cells at a dose of 10 μM. Investigations on similar molecules in which a ligand for the estrogen receptor (ER) was tethered to the same DNA damaging warhead, a similar (but slightly smaller) differential toxicity in favor of killing ER positive cells was observed."}, "LNCaP cells [2]": {"test_system": "LNCaP cells", "format": "cell-based, human"}, "LNCaP cells [3]": {"test_system": "LNCaP cells", "experiment": "Annexin V staining and flow cytometry", "format": "cell-based, human", "conditions": "treatment for 15 h"}, "LNCaP cells [4]": {"test_system": "LNCaP cells", "experiment": "DNA fragmentation by agarose gel electrophoresis", "format": "cell-based, human", "conditions": "10 μM, 24 h exposure"}, "PARP": {"test_system": "PARP", "format": "cell-based, human", "conditions": "10 μM, LNCaP cells"}, "LNCaP cells [5]": {"test_system": "LNCaP cells", "experiment": "Cell cycle analysis by flow cytometry", "format": "cell-based, human", "conditions": "LNCaP cells"}, "LNCaP cells [6]": {"test_system": "LNCaP cells", "format": "cell-based, human", "conditions": "LNCaP cells, single agent"}, "p27 (Kip1)": {"test_system": "p27 (Kip1)", "format": "cell-based, human", "conditions": "LNCaP cells, 10 μM, up to 15 h"}, "p21 (WAF1/Cip1)": {"test_system": "p21 (WAF1/Cip1)", "format": "cell-based, human", "conditions": "LNCaP cells, 10 μM"}, "p45 Skp2": {"test_system": "p45 Skp2", "format": "cell-based, human", "conditions": "LNCaP cells, 10 μM, up to 15 h"}, "c-Myc": {"test_system": "c-Myc", "experiment": "c-Myc protein levels in LNCaP cells", "format": "cell-based, human"}, "p70S6K": {"test_system": "p70S6K", "experiment": "Phosphorylation status of p70S6K in LNCaP cells", "format": "cell-based, human", "conditions": "after addition to cells"}, "4E-BP1": {"test_system": "4E-BP1", "experiment": "Phosphorylation status of 4E-BP1 in LNCaP cells", "format": "cell-based, human"}, "liver DNA": {"test_system": "liver DNA", "experiment": "DNA adduct formation in liver of treated mice", "format": "in vivo", "conditions": "two hours post dosing", "procedure": "A set of in vivo studies was performed to assess the stability and biodistribution of the 11β-dichloro compound in mice. These studies required formulation of the compound in a vehicle that would deliver the compound to the tissues following IP or IV administration. The vehicle was Cremophor EL:ethanol:saline (40:30:30 by volume). […] For 2 to 3 hours the compound was present above the […] concentration at which good differential toxicity in favor of killing LNCaP cells in culture was observed. There was also evidence that the intact molecule reached its intended biological target—cellular DNA."}, "[7]": {"test_system": "LNCaP cells grown as a xenograft", "experiment": "LNCaP xenograft in nude mice", "format": "in vivo", "conditions": "seven weekly five-day cycles of 30 mg/kg IP", "procedure": "The efficacy of 11β-dichloro was examined toward LNCaP cells grown as a xenograft in nude mice. […] Animals bearing LNCaP xenografts were treated with seven consecutive weekly five-day cycles of 30 mg 11β-dichloro/kg administered via IP injection.\nAnimal Studies. Four to six week old NIH Swiss nu/nu athymic male mice (25 gm) were obtained from the National Cancer Institute-Frederick Cancer Center (Frederick, Md.). Experiments were carried out under guidelines of the MIT Animal Care Committee. Animals were injected subcutaneously in the right flank with 5×10^6 LNCaP cells suspended in a solution of 50% PBS/50% Matrigel (Collaborative Research, Bedford, Mass.). Therapy commenced when a palpable tumor of approximately 4×4 mm formed (n=5 per treatment group). The 11β-dichloro compound was dissolved in a vehicle composed of cremophor EL, saline and ethanol (43:30:27). Tumor dimensions were measured with vernier calipers. Tumor volumes were calculated using the formula: π/6×larger diameter×(smaller diameter)^2. Statistical analyses were performed using a paired t-test. At the end of the study period, animals were euthanized with CO2. At the time of sacrifice, blood samples were taken from several animals in each group for a complete blood count, along with serum chemistry and liver function analyses. A complete necropsy was also performed, including histopathology on two animals from each group."}, "[8]": {"test_system": "human colon adenocarcinoma cell line DLD-1", "experiment": "DLD-1 xenograft in nude mice", "format": "in vivo"}, "[9]": {"test_system": "engineered estrogen receptor ligand binding domain-positive HeLa cell line", "experiment": "ER ligand binding domain-positive HeLa xenograft in nude mice", "format": "in vivo"}, "[10]": {"experiment": "Pharmacokinetics / plasma levels in mice"}},
  "note": "Entries after “also recorded” stand apart in the source; their conditions may differ.",
  "data": [
    {"smiles": "CC12CC(CCCCCCNCCOC(=O)NCCCc3ccc(N(CCCl)CCCl)cc3)C3=C4CCC(=O)C=C4CCC3C1CCC2O", "note": "(stereo not drawn) [Compound 11β-dichloro, 11β-{N-(2-(N-((N,N-bis-2-chloroethylaminophenyl)propyl)-carbamoyloxy)ethyl)aminohexyl}-17β-hydroxy-estra-Δ4(5),9(10)-3-one]", "values": [
      {"measurement": "RBA (Relative Binding Affinity) for the AR", "setting": "AR from LNCaP cells", "result": 33},
      {"measurement": "sensitivity of AR positive LNCaP cells relative to AR negative PC3 and DU145 cells", "setting": "[1]", "result": 7, "unit": "fold"},
      {"measurement": "changes in LNCaP cell shape", "setting": "LNCaP cells [2]", "result": "dramatic contraction and detachment"},
      {"measurement": "concentration showing increased Annexin V staining", "setting": "LNCaP cells [3]", "result": "> 5", "unit": "µM"},
      {"measurement": "DNA fragmentation", "setting": "LNCaP cells [4]", "result": "DNA fragmentation occurs"},
      {"measurement": "time to cleavage of PARP", "setting": "PARP", "result": "≤ 9", "unit": "h"},
      {"measurement": "cell cycle arrest", "setting": "LNCaP cells [5]", "result": "did not arrest cells in a specific point in the cell cycle"},
      {"measurement": "apoptotic response", "setting": "LNCaP cells [6]", "result": "LNCaP cells undergo apoptosis; also recorded: potent inducer of apoptosis and cell death; also recorded: activates an apoptotic response resulting in destruction of cells"},
      {"measurement": "levels of p27", "setting": "p27 (Kip1)", "result": "increased"},
      {"measurement": "initial change in levels of p21", "setting": "p21 (WAF1/Cip1)", "result": "initially decreased"},
      {"measurement": "increase in level of p21", "setting": "p21 (WAF1/Cip1); up to 15 h", "result": 9, "unit": "fold"},
      {"measurement": "levels of Skp2", "setting": "p45 Skp2", "result": "decreased"},
      {"measurement": "levels of the c-Myc protein", "setting": "c-Myc", "result": "decreased rapidly"},
      {"measurement": "time to removal of the phosphate on Th389 of p70S6K", "setting": "p70S6K", "result": "≤ 30", "unit": "min"},
      {"measurement": "phosphorylation of 4E-BP1", "setting": "4E-BP1", "result": "rapid disappearance of phosphate groups"},
      {"measurement": "DNA adducts formed by the intact compound in liver", "setting": "liver DNA", "result": "isolated from liver DNA of treated animals"},
      {"measurement": "tumor growth of LNCaP xenograft", "setting": "[7]", "result": "inhibition of tumor growth"},
      {"measurement": "tumor growth of DLD-1 xenograft", "setting": "[8]", "result": "Inhibition of tumor growth"},
      {"measurement": "tumor growth of ER-LBD-positive HeLa xenograft", "setting": "[9]", "result": "Inhibition of tumor growth"},
      {"measurement": "plasma levels", "setting": "[10]; IP injection of radiolabeled compound, within 30 min", "result": "30 to 40", "unit": "µM"},
      {"measurement": "intact compound in plasma by HPLC", "setting": "[10]; at 1 hour, along with several minor unidentified metabolites", "result": "lower concentrations"}
    ]}
  ]
}
